Results reported in the Kinase Knowledgebase extract (Sharma et al. 2016).

How the values were obtained:
CDK2 (Human) = CDK2 (Human) (UniProt P24941); experiment: Enzyme Assay
EGFR (human) = EGFR (human) (UniProt P00533)
Chain of EGFR (human) (P00533 whole entry, looked up): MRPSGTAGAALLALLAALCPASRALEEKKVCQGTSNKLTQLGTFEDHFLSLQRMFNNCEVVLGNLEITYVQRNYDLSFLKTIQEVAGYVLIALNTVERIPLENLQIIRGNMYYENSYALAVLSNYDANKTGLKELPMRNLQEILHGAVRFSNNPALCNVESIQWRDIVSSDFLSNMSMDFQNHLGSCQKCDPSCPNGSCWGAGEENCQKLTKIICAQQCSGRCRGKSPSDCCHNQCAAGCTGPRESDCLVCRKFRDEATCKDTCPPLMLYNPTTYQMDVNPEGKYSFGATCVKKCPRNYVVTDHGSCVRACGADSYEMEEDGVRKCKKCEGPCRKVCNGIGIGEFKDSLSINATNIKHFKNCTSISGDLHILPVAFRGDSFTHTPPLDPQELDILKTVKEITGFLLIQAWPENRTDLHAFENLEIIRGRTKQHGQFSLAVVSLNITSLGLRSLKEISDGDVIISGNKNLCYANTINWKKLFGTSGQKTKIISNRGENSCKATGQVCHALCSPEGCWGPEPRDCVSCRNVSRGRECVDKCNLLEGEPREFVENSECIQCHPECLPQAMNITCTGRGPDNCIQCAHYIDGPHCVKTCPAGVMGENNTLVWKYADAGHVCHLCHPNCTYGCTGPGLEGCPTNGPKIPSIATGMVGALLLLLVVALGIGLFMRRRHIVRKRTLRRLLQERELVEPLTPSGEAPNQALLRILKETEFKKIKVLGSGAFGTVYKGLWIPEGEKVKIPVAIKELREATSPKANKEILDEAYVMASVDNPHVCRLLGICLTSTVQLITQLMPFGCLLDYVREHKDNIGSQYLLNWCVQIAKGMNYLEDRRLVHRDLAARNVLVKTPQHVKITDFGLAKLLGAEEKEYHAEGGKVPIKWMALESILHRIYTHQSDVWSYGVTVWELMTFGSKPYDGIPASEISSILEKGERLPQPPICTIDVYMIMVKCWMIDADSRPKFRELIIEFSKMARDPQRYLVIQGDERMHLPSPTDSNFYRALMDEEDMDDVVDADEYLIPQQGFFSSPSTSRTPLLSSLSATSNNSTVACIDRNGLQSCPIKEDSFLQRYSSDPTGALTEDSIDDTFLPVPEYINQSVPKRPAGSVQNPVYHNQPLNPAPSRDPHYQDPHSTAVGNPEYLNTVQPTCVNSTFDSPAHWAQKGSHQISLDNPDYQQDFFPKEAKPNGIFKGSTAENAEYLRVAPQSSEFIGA

## Cc1[nH]nc2c1N=C(c1ccccc1Cl)c1cc(Cl)ccc1N2
CDK2 (Human)
  IC50: 440 nM

## Cc1[nH]nc2c1N=C(c1ccccc1Cl)c1cc(NS(C)(=O)=O)ccc1N2
CDK2 (Human)
  IC50: 24 nM

## COc1ccc2c(c1)C(c1ccccc1Cl)=Nc1c(n[nH]c1C)N2
CDK2 (Human)
  IC50: 320 nM

## Cc1[nH]nc2c1N=C(c1ccccc1F)c1cc(C(N)=O)ccc1N2
CDK2 (Human)
  IC50: 17 nM

## CC(=O)Nc1ccc2c(c1)C(c1ccccc1Cl)=Nc1c(n[nH]c1C)N2
EGFR (human)
  IC50: 726 nM
CDK2 (Human)
  IC50: 38 nM

## Cc1[nH]nc2c1N=C(c1ccccc1Cl)c1cc(N)ccc1N2
EGFR (human)
  IC50: 989 nM
CDK2 (Human)
  IC50: 88 nM

## Cc1[nH]nc2c1N=C(c1ccccc1)c1cc(Cl)ccc1N2
CDK2 (Human)
  IC50: 490 nM

## Cc1[nH]nc2c1N=C(c1ccccc1F)c1cc(C#N)ccc1N2
EGFR (human)
  IC50: 10900 nM
CDK2 (Human)
  IC50: 16 nM

## Cc1[nH]nc2c1N=C(c1ccccc1Cl)c1cc(NS(=O)(=O)N(C)C)ccc1N2
CDK2 (Human)
  IC50: 46 nM

## Cc1[nH]nc2c1N=C(c1ccccc1F)c1cc(Cl)ccc1N2
CDK2 (Human)
  IC50: 190 nM
